Results filed as inconclusive are left out. The source made the active and inactive calls.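 The calls were made as follows: active = EC50 no more than tenfold above the top concentration tested, with valid fit and all samples agreeing; inconclusive = flat fit at 30 to 70% inhibition, poor fit, or split samples; inactive = EC50 beyond tenfold the top concentration tested.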
Tested on: BJeLR fibroblast viability, Alamar Blue fluorescence, 48 h
Assay: cytotoxicity toward RAS-transformed BJeLR fibroblasts, dose response, cell-based, alamar blue fluorescence, 48 h, cherrypicked samples (AID 2610);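 also: BJ fibroblasts with hTERT plus SV40 large and small T and HRAS V12; EC50 for loss of viable cells so potency reflects cytotoxic compounds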

Row | SMILES | EC50
1 | COc1cc(OC)cc(C(=O)N[C@H](C(=O)Nc2nc3ccccc3[nH]2)C(C)C)c1 | 324 nM
2 | Nc1nc(CCl)nc(N(c2ccccc2)c2ccccc2)n1 | 121 nM
3 | O=C(N/N=C/c1ccccc1Cl)c1[nH]c2ccc(Br)cc2c1-c1ccccc1 | 149 nM
4 | O=C(N/N=C/c1cccnc1)c1ccc(NC(=O)C(c2ccccc2)c2ccccc2)cc1 | 344 nM
5 | COc1ccccc1-c1nnc2sc(-c3ccc(N(C)C)cc3)nn12 | < 104 nM
6 | O=C(Oc1ccc(-c2nc(-c3ccccn3)no2)cc1)c1ccccc1 | > 13300 nM (inactive)
7 | C(=N\Nc1nc2ccccc2[nH]1)/c1ccc2ncccc2c1 | > 13300 nM (inactive)
8 | Cc1ccc(C(C)C)c(OCc2ccc(C(=O)N/N=C/c3cccc(O)c3O)cc2)c1 | 496 nM
9 | COc1ccc(F)cc1CN1CCN(C(=O)CCC(=O)Nc2nnc(CC(C)C)s2)CC1 | > 13300 nM (inactive)
